Patent publication US20240368174A1, “Antiviral Heterocyclic Compounds” (Enanta Pharmaceuticals, Inc., priority 2023, published 2024)

Tested on: HMPV clinical isolate A2 strain TN 94-49
Assay: HMPV antiviral assay, Method 2 (LLC-MK2 cells with CP-100-356, ATP-Lite)
Format: cell-based
Details: human metapneumovirus
How it was run: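 LLC-MK2 rhesus kidney cells (5,000/well) infected in suspension with HMPV A2 TN 94-49 at MOI 0.16, in serum-free medium with final 2 μg/mL TPCK-trypsin and 2 μM CP-100-356. Compounds tested in duplicate from 200 nM, 2.5-fold, 10 points; 7 days at 37 °C. Cell health by ATP-Lite luminescence; EC50 by four-parameter fit.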

[1] = hMPV A2 TN/94-49, LLC-MK2 cells with CP-100-356, Method 2
[2] = 168 h, hMPV A2 TN/94-49, LLC-MK2 cells with 4 μM CP-100-356, 7 days, ATP-Lite

Compound | EC50 [1] | EC50 [2]
COc1cc(C(=O)NC[C@@](O)(c2ccc(F)cc2)c2cc3c(c(-c4ccnc(C)c4Cl)n2)OC[C@]3(C)C(N)=O)cc2cn(C3CC3)nc12 [Example 646] | – | < 200 nM
COc1cc(C(=O)NC[C@](O)(c2cc3c(c(-c4ccnc(C(F)(F)F)c4)n2)OC[C@]3(C)C(N)=O)C2CC2)cc2cn(C(F)F)nc12 [Example 759] | – | > 200 nM
COc1cc(C(=O)NC[C@](O)(c2cc3c(c(-c4cc(Cl)c(F)cc4F)n2)OC[C@]3(C)C(N)=O)c2nccn2C)cc2cn(C3CC3)nc12 [Example 464] | > 200 nM | –
COc1cc(C(=O)NC[C@@](O)(c2ccccc2)c2cc3c(c(-c4cc(Cl)c(F)cc4F)n2)OC[C@]3(C)C(N)=O)cc(O)c1NC(=O)C1(F)CC1 [Example 242] | > 200 nM | –
COc1nccc(-c2nc([C@@](O)(CNC(=O)c3cc(OC)c4nc(C5CC5)oc4c3)c3ccccc3)cc3c2OC[C@]3(C)C(N)=O)c1Cl [Example 556] | < 200 nM | –
COc1nccc(-c2nc([C@@](O)(CNC(=O)c3cc(OC4CC4)c4nn(C(F)F)cc4c3)c3cccc(F)c3)cc3c2OC[C@]3(C)C(N)=O)c1Cl [Example 902] | – | > 200 nM
COc1cc(C(=O)NC[C@@](O)(c2ccccc2)c2cc3c(c(-c4ccnc(F)c4Cl)n2)OC[C@]3(C)C(N)=O)cc2cn(C(F)F)nc12 [Example 663] | – | < 200 nM
COc1cc(C(=O)NC[C@@](O)(c2ccccc2)c2cc3c(c(-c4cccc(F)c4Cl)n2)OC[C@]3(C)C(N)=O)cc2cn(C3(F)CC3)nc12 [Example 368] | < 200 nM | –
COc1cc(C(=O)NC[C@](O)(c2cc3c(c(-c4ccnc(Cl)c4Cl)n2)OC[C@]3(C)C(N)=O)C2(F)CC2)cn2cc(C3(F)CC3)nc12 [Example 522] | < 200 nM | –
COc1cc(C(=O)NC[C@](O)(c2cc3c(c(-c4ccnc(C(C)C)c4Cl)n2)OC[C@]3(C)C(N)=O)C2CC2)cc2cn(C3CC3)nc12 [Example 810] | – | < 200 nM
COc1nccc(-c2nc([C@@](O)(CNC(=O)c3cc(OC)c4nn(C5CC5)cc4c3)c3ccccc3)cc3c2OC[C@]3(C)C(N)=O)c1Cl [Example 553] | < 200 nM | –
COc1nccc(-c2nc([C@@](O)(CNC(=O)c3cc(OC)c4nn(C5(F)CC5)cc4c3)c3ccc(F)cc3)cc3c2OC[C@]3(C)C(N)=O)c1Cl [Example 697] | – | < 200 nM
COc1cc(C(=O)NC[C@](O)(c2cc3c(c(-c4cc(C(F)(F)F)ncc4F)n2)OC[C@]3(C)C(N)=O)C2(F)CC2)cc2cc(C3CC3)nn12 [Example 669] | – | < 200 nM
COc1cc(C(=O)NC[C@@](O)(c2ccccc2)c2cc3c(c(-c4ccnc(C(F)F)c4Cl)n2)OC[C@]3(C)C(N)=O)cc2cn(C3(F)CC3)nc12 [Example 563] | < 200 nM | –
C[C@]1(C(N)=O)COc2c1cc([C@@](O)(CNC(=O)c1cc(OC3CC3)c3nn(C4CC4)cc3c1)c1ccccc1)nc2-c1cc(Cl)c(F)cc1F [Example 98] | < 200 nM | –
COc1cc(C(=O)NC[C@](O)(c2cc3c(c(-c4ccnc(C)c4Cl)n2)OC[C@]3(C)C(N)=O)C2CC2)cc2cn(C3CC3)nc12 [Example 871] | – | < 200 nM
COc1nccc(-c2nc([C@@](O)(CNC(=O)c3cc(OC)c4nc(C5CC5)oc4c3)C3(F)CC3)cc3c2OC[C@]3(C)C(N)=O)c1Cl [Example 645] | – | < 200 nM
COc1cc(-c2nc([C@@](O)(CNC(=O)c3cc(OC4CC4)c4nn(C5CC5)cc4c3)c3ccccc3)cc3c2OC[C@]3(C)C(N)=O)c(F)cn1 [Example 900] | – | > 200 nM
COc1cc(C(=O)NC[C@](O)(c2cc3c(c(-c4ccnc(C(F)(F)F)c4Cl)n2)OC[C@]3(C)C(N)=O)C(F)(F)F)cc2cc(C3CC3)nn12 [Example 596] | < 200 nM | –
COc1cc(C(=O)NC[C@@](O)(c2ccccc2)c2cc3c(c(-c4ccc(F)c(F)c4Cl)n2)OC[C@]3(C)C(N)=O)cc2cn(C3(F)CC3)nc12 [Example 370] | < 200 nM | –
COc1c(F)ccc(-c2nc([C@@](O)(CNC(=O)c3cc(OC)c4nn(C5(F)CC5)cc4c3)c3ccccc3)cc3c2OC[C@]3(C)C(N)=O)c1Cl [Example 375] | < 200 nM | –
C[C@]1(C(N)=O)COc2c1cc([C@@](O)(CNC(=O)c1ccc3nc(C4CC4)oc3c1)c1cccc(F)c1)nc2-c1ccc(F)c(Cl)c1Cl [Example 312] | < 200 nM | –
COc1cc(C(=O)NC[C@](O)(c2cc3c(c(-c4c(C)cncc4F)n2)OC[C@]3(C)C(N)=O)C2CC2)cc2cn(C3CC3)nc12 [Example 725] | – | < 200 nM
COc1cc(C(=O)NC[C@@](O)(c2ccccc2)c2cc3c(c(-c4cc(C(F)F)c(F)cc4F)n2)OC[C@]3(C)C(N)=O)cc2cn(C(F)F)nc12 [Example 300] | < 200 nM | –
COc1nccc(-c2nc([C@@](O)(CNC(=O)c3cc(OC)c4nn(C5CC5)cc4c3)C3(F)CC3)cc3c2OC[C@]3(C)C(N)=O)c1Cl [Example 653] | – | < 200 nM
COc1cc(-c2nc([C@@](O)(CNC(=O)c3cc(OC)c4nn(C5CC5)cc4c3)C(F)(F)F)cc3c2OC[C@]3(C)C(N)=O)c(Cl)cn1 [Example 835] | – | > 200 nM
COc1cc(C(=O)NC[C@](O)(c2cc3c(c(-n4ncc5c(F)cccc54)n2)OC[C@]3(C)C(N)=O)C(F)(F)F)cc2oc(C3CC3)nc12 [Example 836] | – | > 200 nM
COc1cc(C(=O)NC[C@](O)(c2cc3c(c(-c4ccnc(C)c4Cl)n2)OC[C@]3(C)C(N)=O)C2(F)CC2)cc2oc(C3(F)CC3)nc12 [Example 532] | > 200 nM | –
COc1cc(C(=O)NC[C@@](O)(c2cccc(S(N)(=O)=O)c2)c2cc3c(c(-c4cc(Cl)c(F)cc4F)n2)OC[C@]3(C)C(N)=O)cc2cn(C3CC3)nc12 [Example 486] | > 200 nM | –
COc1cc(C(=O)NC[C@](O)(c2cc3c(c(-c4cc(C(F)(F)F)c(F)cc4F)n2)OC[C@]3(C)C(N)=O)C(F)(F)F)cc2cn(C3CC3)nc12 [Example 395] | < 200 nM | –

Further lines, results first:

EC50 [1] | EC50 [2] | Compound
> 200 nM | – | COc1cc(C(=O)NC[C@@](O)(c2ccccc2)c2cc3c(c(-c4cc(Cl)c(F)cc4F)n2)OC[C@]3(C)C(N)=O)cc2cc(Cl)c(F)nc12 [Example 342]
< 200 nM | – | COc1cc(C(=O)NC[C@](O)(c2cc3c(c(-c4cc(Cl)c(F)cc4F)n2)OC[C@]3(C)C(N)=O)C2CC2)cc2cc(Cl)cnc12 [Example 225]
< 200 nM | – | COc1cc(C(=O)NC[C@](O)(c2cc3c(c(-c4ccnc(F)c4C)n2)OC[C@]3(C)C(N)=O)C2CC2)cc2cn(C3CC3)nc12 [Example 383]
< 200 nM | – | C[C@]1(C(N)=O)COc2c1cc([C@@](O)(CNC(=O)c1cc(OC3CC3)c3ncc(Cl)cc3c1)C1CC1)nc2-c1cc(C(F)(F)F)c(F)cc1F [Example 317]
< 200 nM | – | COc1nccc(-c2nc([C@@](O)(CNC(=O)c3cc(OC4CC4)n4nc(C5CC5)cc4c3)C3CC3)cc3c2OC[C@]3(C)C(N)=O)c1Cl [Example 606]
> 200 nM | – | COc1cc(C(=O)NC[C@@](O)(c2ccccc2)c2cc3c(c(-c4cc(Cl)c(F)cc4F)n2)OC[C@]3(C)C(N)=O)cc2c1OCCC2 [Example 93]
< 200 nM | – | COc1cc(C(=O)NC[C@@](O)(c2ccccc2)c2cc3c(c(-c4cc(Cl)c(F)cc4F)n2)OC[C@]3(C)C(N)=O)cc2oc(C3(F)CC3)nc12 [Example 241]
< 200 nM | – | [2H]c1nc2c(OC)cc(C(=O)NC[C@@](O)(c3ccccc3)c3cc4c(c(-c5cc(Cl)c(F)cc5F)n3)OC[C@]4(C)C(N)=O)cc2cc1Cl [Example 220]
< 200 nM | – | C[C@]1(C(N)=O)COc2c1cc([C@@](O)(CNC(=O)c1cc(OC3CC3)c3ncc(Cl)cc3c1)c1ccccc1)nc2-c1cc(C(F)(F)F)c(F)cc1F [Example 315]
– | > 200 nM | COc1cc(C(=O)NC[C@](O)(c2cc3c(c(-c4ccnc(C5CCOCC5)c4Cl)n2)OC[C@]3(C)C(N)=O)C2CC2)cc2oc(C3CC3)nc12 [Example 906]
< 200 nM | – | COc1cc(C(=O)NC[C@@](O)(c2ccccc2)c2cc3c(c(-c4ccc5c(c4)OC(F)(F)O5)n2)OC[C@]3(C)C(N)=O)cc2oc(C)nc12 [Example 201]
– | < 200 nM | COc1cc(C(=O)NC[C@](O)(c2cc3c(c(-c4ccnc(C(F)(F)F)c4F)n2)OC[C@]3(C)C(N)=O)C2CC2)cc2cn(C(F)F)nc12 [Example 799]
< 200 nM | – | COc1cc(C(=O)NC[C@@](O)(c2cccc(F)c2)c2cc3c(c(-c4ccnc(C(F)F)c4Cl)n2)OC[C@]3(C)C(N)=O)cc2oc(C(F)F)nc12 [Example 568]
< 200 nM | – | COc1cc(C(=O)NC[C@](O)(c2cc3c(c(-c4cc(Cl)c(F)cc4F)n2)OC[C@]3(C)C(N)=O)c2ccn(C)n2)cc2cn(C3CC3)nc12 [Example 480]
< 200 nM | – | COc1nccc(-c2nc([C@@](O)(CNC(=O)c3cc(OC)c4nc(C(F)F)oc4c3)c3ccccc3)cc3c2OC[C@]3(C)C(N)=O)c1Cl [Example 557]
– | < 200 nM | COc1cc(C(=O)NC[C@](O)(c2cc3c(c(-c4cc(C(F)(F)F)ncc4F)n2)OC[C@]3(C)C(N)=O)C2(F)CC2)cn2cc(C3CC3)nc12 [Example 668]
> 200 nM | – | C[C@]1(C(N)=O)COc2c1cc([C@@](O)(CNC(=O)c1ccc3nc(-c4ccccc4)oc3c1)c1ccccc1)nc2-c1cc(Cl)c(F)cc1F [Example 227]
< 200 nM | – | C[C@]1(C(N)=O)COc2c1cc([C@@](O)(CNC(=O)c1cc(Cl)c3nn(C4CC4)cc3c1)C(F)(F)F)nc2-c1ccnc(C(F)(F)F)c1Cl [Example 535]
– | > 200 nM | COc1cc(C(=O)NC[C@@](O)(c2cc3c(c(-n4ccc5cnccc54)n2)OC[C@]3(C)C(N)=O)C2CC2)cc2cn(C3CC3)nc12 [Example 840]
< 200 nM | – | COc1cc(C(=O)NC[C@](O)(c2cc3c(c(-c4cc(C(F)(F)F)c(F)cc4F)n2)OC[C@]3(C)C(N)=O)C2CC2)cc2cc(C(F)(F)F)cnc12 [Example 329]
< 200 nM | – | COc1cc(C(=O)NC[C@@](O)(c2ccccc2)c2cc3c(c(-c4cc(Cl)c(F)cc4F)n2)OC[C@]3(C)C(N)=O)cc2cc(Cl)nnc12 [Example 113]
< 200 nM | – | COc1cc(C(=O)NC[C@](O)(c2cc3c(c(-c4ccnc(C(F)F)c4Cl)n2)OC[C@]3(C)C(N)=O)C(F)(F)F)cc2sc(C)nc12 [Example 551]
